Here are results for 31 molecules from PMC6982702, “Extensive Structure Modification on Luteolin-Cinnamic Acid Conjugates Leading to BACE1 Inhibitors with Optimal Pharmacological Properties” (Molecules, 2019).

For data set [1], the target named is T1, BACE1 (Homo sapiens, UniProt P56817).
T1 construct: purchased PanVera Co. (Invitrogen, USA)
Briefly: In vitro BACE1 FRET enzyme assay. It counts as biochemical. Particulars: BACE1 FRET assay; for inhibition at 10 µM: 10 μM compound, read-out: Inhibition Rate at 10 μM (%). As for the experimental part:
The BACE1 FRET assay kit was purchased from the PanVera Co. (Invitrogen, USA). The assay was carried out according to the supplied manual with modifications. […] The fluorescence intensity was measured with a TECAN infinite 200 microplate reader for 60 min at 25 °C in the dark. […] The percent inhibition (%) was obtained by the following equation: Inhibition % = (1 −SS/SC) × 100%, where SC is the slope of fluorescence change of the control (enzyme, buffer, and substrate) during 60 min, and SS is the slope of fluorescence change of the tested samples (enzyme, sample solution, and substrate) during 60 min of measurement. IC50 values were calculated from the nonlinear curve fitting of percentage inhibition against inhibitor concentration using Prism 3.0 software (GraphPad Software, San Diego, CA, USA).

Data set [2] is described as follows: MTT cytotoxicity assay. It counts as cell-based. Particulars: human, 24 h exposure. As for the experimental part:
It is crucial for the BACE1 inhibitors to exert their activities at sub-toxic concentration, and thus their cytotoxicity was assessed in HEK293 cells by 3-[4,5-dimethylthiazol-2-yl]-2,5-diphenyl-tetrazolium bromide (MTT) assays (Table 5). […] Unfortunately, there was no obvious relationship between the structures and their cytotoxicity.
The cytotoxicity was examined by using 3-[4,5-dimethylthiazol-2-yl]-2,5-diphenyl-tetrazolium bromide (MTT) assay. HEK293T cells were seeded with complete DMEM into 96-well plates ([…], 100 µL/well), incubated at 37 °C in a humidified atmosphere with 5% CO2 for 24 h. All the compounds were diluted with the phenol red-free DMEM at a specific concentration. After 24 h of exposure to different concentrations of compound, the supernatant was removed and then 20% (v/v) MTT (5 mg/mL) diluted with fresh culture medium was added into each well and incubated for 4 h. Cells were lysed with 100 μL dimethyl sulfoxide (DMSO) and shaken for 10 min at room temperature. The absorbance in each well was detected at a wavelength of 490 nm using a Universal Microplate Reader (ELX 800 lv, BIO-TEK Instruments, Inc., Winooski, VT, USA).

[3] abbreviates: HEK293 cells (method text: HEK293T).

Molecules are shown by their SMILES.

T1 sequence (P56817 46-501): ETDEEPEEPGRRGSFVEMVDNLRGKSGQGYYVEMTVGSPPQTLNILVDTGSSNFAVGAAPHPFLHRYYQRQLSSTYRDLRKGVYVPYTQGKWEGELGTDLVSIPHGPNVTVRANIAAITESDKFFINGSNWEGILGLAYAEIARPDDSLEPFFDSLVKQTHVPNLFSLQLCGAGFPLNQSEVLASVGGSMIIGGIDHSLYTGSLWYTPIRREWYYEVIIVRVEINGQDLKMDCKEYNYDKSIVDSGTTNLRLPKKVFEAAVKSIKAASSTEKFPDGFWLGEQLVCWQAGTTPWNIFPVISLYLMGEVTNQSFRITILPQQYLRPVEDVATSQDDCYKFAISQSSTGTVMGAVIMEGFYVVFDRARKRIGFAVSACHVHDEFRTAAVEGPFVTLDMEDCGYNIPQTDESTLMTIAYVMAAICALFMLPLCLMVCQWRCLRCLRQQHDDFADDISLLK

Consider `CC(=O)Oc1ccc(/C=C/C(=O)Oc2cccc(-c3cc(=O)c4c(O)cc(O)cc4o3)c2)cc1` [Compound 4a], for which, in data set [1], the inhibition at 10 µM stood at 23.9 ± 2.95%. As for `O=C(/C=C/c1ccc(O)cc1)Oc1cccc(-c2cc(=O)c3c(O)cc(O)cc3o2)c1` [Compound 4b], in data set [1], the inhibition at 10 µM is 14.8 ± 7.35%.

Regarding `CC(=O)Oc1ccc(/C=C/C(=O)OCCOc2cccc(-c3cc(=O)c4c(O)cc(O)cc4o3)c2)cc1` [Compound 4c], the inhibition at 10 µM in data set [1] was 31.8 ± 5.25%. `O=C(/C=C/c1ccc(O)cc1)OCCOc1cccc(-c2cc(=O)c3c(O)cc(O)cc3o2)c1` [Compound 4d]: the inhibition at 10 µM in data set [1] worked out at 39.6 ± 12.5%.

In the case of `CC(=O)Oc1ccc(/C=C/C(=O)Oc2ccc(-c3cc(=O)c4c(O)cc(O)cc4o3)cc2)cc1` [Compound 4e], in data set [1], the inhibition at 10 µM is 1.9 ± 10.3%. Still for that read-out and setting: under `O=C(/C=C/c1ccc(O)cc1)Oc1ccc(-c2cc(=O)c3c(O)cc(O)cc3o2)cc1` [Compound 4f] stands 29.4 ± 5.5%; under `CC(=O)Oc1ccc(/C=C/C(=O)OCCOc2ccc(-c3cc(=O)c4c(O)cc(O)cc4o3)cc2)cc1` [Compound 4g], 17.1 ± 6%. For the molecule `O=C(/C=C/c1ccc(O)cc1)OCCOc1ccc(-c2cc(=O)c3c(O)cc(O)cc3o2)cc1` [Compound 4h], the inhibition at 10 µM in data set [1] is 36 ± 4.2%. Same read-out and setting: under `O=C(/C=C/c1ccc(O)cc1)OCCOCCOc1ccc(-c2cc(=O)c3c(O)cc(O)cc3o2)cc1` [Compound 4i] stands 37 ± 8.6%. On to `O=C(/C=C/c1ccc(O)cc1)OCCOc1c(-c2ccc(O)c(O)c2)oc2cc(O)cc(O)c2c1=O` [Compound 4j, 2-((2-(3,4-dihydroxyphenyl)-5,7-dihydroxy-4-oxo-4H-chromen-3-yl)oxy)ethyl(E)-3-(4-hydroxyphenyl)acrylate], for which, in data set [1], the IC50 turned out to be 6.78 ± 0.83 µM and the inhibition at 10 µM is 59.2 ± 6.3%. As to `O=C(/C=C/c1ccc(O)cc1)OCCOc1ccc2oc(-c3ccc(O)c(O)c3)cc(=O)c2c1` [Compound 4k], in data set [1], it took 12.9 ± 1.14 µM to reach half-maximal inhibition (IC50) and the inhibition at 10 µM amounted to 60.6 ± 5.3%.

Take `O=C(/C=C/c1ccc(O)cc1)OCCCOc1cc(O)c2c(=O)cc(-c3ccc(O)c(O)c3)oc2c1` [Compound 5a, (E)-3-((2-(3,4-dihydroxyphenyl)-5-hydroxy-4-oxo-4H-chromen-7-yl)oxy)propyl 3-(4-hydroxyphenyl)acrylate]: in data set [1], inhibition was half-maximal at 5.26 ± 0.72 µM (IC50) and the inhibition at 10 µM stood at 81.4 ± 3.8%. Regarding `O=C(/C=C/c1ccc(O)cc1)OCCCCOc1cc(O)c2c(=O)cc(-c3ccc(O)c(O)c3)oc2c1` [Compound 5b, (E)-4-((2-(3,4-dihydroxyphenyl)-5-hydroxy-4-oxo-4H-chromen-7-yl)oxy)butyl 3-(4-hydroxyphenyl)acrylate], in data set [1], the IC50 was 10.4 ± 1.02 µM and the inhibition at 10 µM worked out at 68.1 ± 5.8%. With `O=C(/C=C/c1ccc(O)cc1)OCCCCCOc1cc(O)c2c(=O)cc(-c3ccc(O)c(O)c3)oc2c1` [Compound 5c, (E)-5-((2-(3,4-dihydroxyphenyl)-5-hydroxy-4-oxo-4H-chromen-7-yl)oxy)pentyl 3-(4-hydroxyphenyl)acrylate], in data set [1], the IC50 turned out to be 20.6 ± 1.44 µM and the inhibition at 10 µM came to 62.6 ± 6.4%. Turning to `O=C(/C=C/c1ccc(O)cc1)OCCCCCCOc1cc(O)c2c(=O)cc(-c3ccc(O)c(O)c3)oc2c1` [Compound 5d, (E)-6-((2-(3,4-dihydroxyphenyl)-5-hydroxy-4-oxo-4H-chromen-7-yl)oxy)hexyl 3-(4-hydroxyphenyl)acrylate], the inhibition at 10 µM in data set [1] worked out at 42.4 ± 3.2%.

As to `O=C(/C=C/c1ccc(O)cc1)OCCCCCCCCOc1cc(O)c2c(=O)cc(-c3ccc(O)c(O)c3)oc2c1` [Compound 5e, (E)-8-((2-(3,4-dihydroxyphenyl)-5-hydroxy-4-oxo-4H-chromen-7-yl)oxy)octyl 3-(4-hydroxyphenyl)acrylate], in data set [1], the inhibition at 10 µM came out at 36.1 ± 2.6%. With `O=C(/C=C/c1ccc(O)cc1)OCCCCCCCCCCOc1cc(O)c2c(=O)cc(-c3ccc(O)c(O)c3)oc2c1` [Compound 5f, (E)-10-((2-(3,4-dihydroxyphenyl)-5-hydroxy-4-oxo-4H-chromen-7-yl)oxy)decyl 3-(4-hydroxyphenyl)acrylate], in data set [1], inhibition was half-maximal at 27.8 ± 1.34 µM (IC50) and the inhibition at 10 µM came out at 58.2 ± 3.3%. `O=C(/C=C/c1ccc(O)cc1)Oc1cc(O)c2c(=O)cc(-c3ccc(O)c(O)c3)oc2c1` [Compound 5g]: half-maximal inhibition in data set [2] (setting [3]) (IC50 at 24 h) required 4.21 µM. The inhibition at 10 µM in data set [1] is 41.4 ± 4.4%.

Turning to `O=C(/C=C/c1ccc(O)cc1)OCCOc1cc(O)c2c(=O)cc(-c3ccccc3)oc2c1` [Compound 6], in data set [2] (setting [3]), the IC50 at 24 h is 28.3 µM. The inhibition at 10 µM in data set [1] worked out at 20.5 ± 4.4%. Molecule `O=C(C=Cc1ccccc1)OCCOc1cc(O)c2c(=O)cc(-c3ccc(O)c(O)c3)oc2c1` [Compound 7a, 2-((2-(3,4-dihydroxyphenyl)-5-hydroxy-4-oxo-4H-chromen-7-yl)oxy)ethyl cinnamate] returned a 50% inhibitory concentration (IC50) at 24 h in data set [2] (setting [3]) above 100 µM. Besides, in data set [1], 2.49 ± 0.32 µM corresponded to half-maximal inhibition (IC50) and the inhibition at 10 µM turned out to be 57.5 ± 7.5%. In turn, `O=C(/C=C/c1ccc(O)c(O)c1)OCCOc1cc(O)c2c(=O)cc(-c3ccc(O)c(O)c3)oc2c1` [Compound 7d] registered an IC50 at 24 h in data set [2] (HEK293 cells (method text: HEK293T cells)) of 16.7 µM. Turning to `O=C(/C=C/c1ccc(F)cc1)OCCOc1cc(O)c2c(=O)cc(-c3ccc(O)c(O)c3)oc2c1` [Compound 7e, (E)-2-((2-(3,4-dihydroxyphenyl)-5-hydroxy-4-oxo-4H-chromen-7-yl)oxy)ethyl 3-(4-fluorophenyl)acrylate], in data set [2] (setting [3]), the midpoint of inhibition, the IC50 at 24 h, lay at 16.8 µM. The inhibition at 10 µM in data set [1] turned out to be 28.5 ± 7.1%.

On to `O=C(/C=C/c1ccc(Cl)cc1)OCCOc1cc(O)c2c(=O)cc(-c3ccc(O)c(O)c3)oc2c1` [Compound 7f, (E)-2-((2-(3,4-dihydroxyphenyl)-5-hydroxy-4-oxo-4H-chromen-7-yl)oxy)ethyl 3-(4-chlorophenyl)acrylate], for which half-maximal inhibition in data set [2] (setting [3]) (IC50 at 24 h) was put at 9.97 µM. Moreover, in data set [1], the inhibition at 10 µM is 21.3 ± 7.1%. `O=C(/C=C/c1ccc([N+](=O)[O-])cc1)OCCOc1cc(O)c2c(=O)cc(-c3ccc(O)c(O)c3)oc2c1` [Compound 7g, (E)-2-((2-(3,4-dihydroxyphenyl)-5-hydroxy-4-oxo-4H-chromen-7-yl)oxy)ethyl 3-(4-nitrophenyl)acrylate] gave a half-maximal inhibitory concentration (IC50) at 24 h in data set [2] (setting [3]) of 21.8 µM. Moreover, in data set [1], the IC50 is 0.96 ± 1.55 µM and the inhibition at 10 µM stood at 73.9 ± 7.1%. Regarding `CN(C)c1ccc(/C=C/C(=O)OCCOc2cc(O)c3c(=O)cc(-c4ccc(O)c(O)c4)oc3c2)cc1` [Compound 7h, (E)-2-((2-(3,4-dihydroxyphenyl)-5-hydroxy-4-oxo-4H-chromen-7-yl)oxy)ethyl 3-(4-(dimethylamino)phenyl)acrylate], the IC50 at 24 h in data set [2] (setting [3]) is above 100 µM. For the same molecule, in data set [1], the IC50 turned out to be 6.58 ± 1.16 µM and the inhibition at 10 µM was 53.8 ± 4.4%.

Consider `CC(C)(C)c1ccc(/C=C/C(=O)OCCOc2cc(O)c3c(=O)cc(-c4ccc(O)c(O)c4)oc3c2)cc1` [Compound 7j, (E)-2-((2-(3,4-dihydroxyphenyl)-5-hydroxy-4-oxo-4H-chromen-7-yl)oxy)ethyl 3-(4-(tert-butyl)phenyl)acrylate], for which, in data set [2] (setting [3]), the IC50 at 24 h amounted to 20.3 µM. Further, the inhibition at 10 µM in data set [1] is 37.6 ± 4.4%. Take `O=C(/C=C/c1ccoc1)OCCOc1cc(O)c2c(=O)cc(-c3ccc(O)c(O)c3)oc2c1` [Compound 7l, (E)-2-((2-(3,4-dihydroxyphenyl)-5-hydroxy-4-oxo-4H-chromen-7-yl)oxy)ethyl 3-(furan-3-yl)acrylate]: the IC50 at 24 h in data set [2] (setting [3]) stood at 9.51 µM. In data set [1], half-maximal inhibition (IC50) required 0.37 ± 0.25 µM and the inhibition at 10 µM came to 59.5 ± 7.1%. The molecule `O=C(/C=C/C1CCCCC1)OCCOc1cc(O)c2c(=O)cc(-c3ccc(O)c(O)c3)oc2c1` [Compound 7m, (E)-2-((2-(3,4-dihydroxyphenyl)-5-hydroxy-4-oxo-4H-chromen-7-yl)oxy)ethyl 3-cyclohexylacrylate] came in with an IC50 at 24 h in data set [2] (setting [3]) of 14.4 µM. For the same molecule, in data set [1], the inhibition at 10 µM turned out to be 22.2 ± 7.1%. For `O=C(OCCOc1cc(O)c2c(=O)cc(-c3ccc(O)c(O)c3)oc2c1)c1ccc(O)cc1` [Compound 7o, 2-((2-(3,4-dihydroxyphenyl)-5-hydroxy-4-oxo-4H-chromen-7-yl)oxy)ethyl 4-hydroxybenzoate] the same measures were 10.3 µM and 51.9 ± 1.9%.

As for `O=C(CCc1ccc(O)cc1)OCCOc1cc(O)c2c(=O)cc(-c3ccc(O)c(O)c3)oc2c1` [Compound 7p, 2-((2-(3,4-dihydroxyphenyl)-5-hydroxy-4-oxo-4H-chromen-7-yl)oxy)ethyl 3-(4-hydroxyphenyl)propanoate], the IC50 at 24 h in data set [2] (setting [3]) turned out to be 90 µM. In addition, in data set [1], the IC50 is 4.39 ± 0.34 µM and the inhibition at 10 µM was found to be 56.7 ± 4.4%. In the case of `CC(=O)Oc1ccc(/C=C/C(=O)OCCOc2cc(O)c3c(=O)cc(-c4ccc(O)c(O)c4)oc3c2)cc1` [Compound 7q, (E)-2-((2-(3,4-dihydroxyphenyl)-5-hydroxy-4-oxo-4H-chromen-7-yl)oxy)ethyl 3-(4-acetoxyphenyl)acrylate], in data set [2] (setting [3]), the IC50 at 24 h was above 100 µM. In addition, the inhibition at 10 µM in data set [1] worked out at 25.7 ± 4.6%.
